Reference: PubChem BioAssay (NCI)
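Growth conditions: 96-well plates. Treatment: test compound, 48 hours, 5 concentrations. Analysis: linear interpolation between bracketing concentrations; unreached endpoints set to highest concentration. GI50 marks 50% less growth. TGI: total growth inhibition.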

Experiments:
Experiment in all cases: NCI tumour cell line growth inhibition, 48 h
[1] = tested on: KM20L2 colon
[2] = tested on: SNB-78 CNS
[3] = tested on: DLD-1 colon
[4] = tested on: LXFL 529 NSCLC
[5] = tested on: M19-MEL melanoma
[6] = tested on: MDA-N
[7] = tested on: RXF-631 renal
[8] = tested on: DMS 273 small cell lung
[9] = tested on: P388 leukemia
[10] = tested on: P388/ADR leukemia
[11] = tested on: SN12K1 renal

| SMILES | TGI [1] | TGI [2] | TGI [3] | TGI [4] | TGI [5] | TGI [6] | TGI [8] | further results |
| --- | --- | --- | --- | --- | --- | --- | --- | --- |
| Cc1ccc(NC(=O)C2C(=O)C(=O)N(c3ccc(C)cc3)C2=O)cc1 (stereo not drawn) | > 100 µM | > 100 µM | > 100 µM | > 100 µM | > 100 µM | – | – | – |
| O=C(O)c1ccc([N+](=O)[O-])c(P(=O)(O)O)c1 | – | – | – | – | – | > 100 µM | – | – |
| NC(Cc1cc(Br)c(O)c(Br)c1)C(=O)O (stereo not drawn) | – | – | – | – | – | > 100 µM | – | – |
| S=C1CNC(=S)CN1 | > 100 µM | > 100 µM | > 100 µM | > 100 µM | > 100 µM | – | > 100 µM | TGI [7]: > 100 µM |
| CCOC(=O)/C(=C/c1cc(OC)ccc1OC)CC(=O)O | > 100 µM | > 100 µM | > 31.6 µM | > 100 µM | > 100 µM | – | > 100 µM | TGI [7]: > 100 µM |
| C=CCOC1=C2CC[C@H](O)[C@@]2(C)CCC1=O | > 100 µM | > 100 µM | > 100 µM | > 100 µM | > 100 µM | – | > 100 µM | – |
| Nc1ccn(C2OC(CO[P+](=O)OC3C(CO[P+](=O)OC4C(CO[P+](=O)OC5C(CO[P+](=O)OC6C(CO[P+](=O)OC7C(CO[P+](=O)OC8C(CO[P+](=O)OC9C(CO[P+](=O)OC%10C(CO[P+](=O)OC%11C(CO)OC(n%12ccc(N)nc%12=O)C%11(F)F)OC(n%11ccc(N)nc%11=O)C%10(F)F)OC(n%10ccc(N)nc%10=O)C9(F)F)OC(n9ccc(N)nc9=O)C8(F)F)OC(n8ccc(N)nc8=O)C7(F)F)OC(n7ccc(N)nc7=O)C6(F)F)OC(n6ccc(N)nc6=O)C5(F)F)OC(n5ccc(N)nc5=O)C4(F)F)OC(n4ccc(N)nc4=O)C3(F)F)C(O)C2(F)F)c(=O)n1 (stereo not drawn) | – | – | – | – | – | > 100 µM | – | – |
| CCCCCCCCCCCCCCCCc1c(C(=O)OC)[nH]c(=S)[nH]c1=O | > 50 µM | > 50 µM | > 50 µM | > 50 µM | > 50 µM | – | > 50 µM | TGI [7]: > 50 µM |
| Cc1cc(=O)[nH]c(CNC(=O)c2cccc3ccccc23)n1 | > 100 µM | > 100 µM | > 100 µM | > 100 µM | > 100 µM | – | > 100 µM | – |
| N#CC(NC12CC3CC(CC(C3)C1)C2)c1ccccc1 (stereo not drawn) | – | – | – | – | – | > 100 µM | – | – |
| [Ce+3].[Cl-].[O-]/N=C(\c1ccccc1)c1ccccn1.[O-]/N=C(\c1ccccc1)c1ccccn1.[O-]/N=C(\c1ccccc1)c1ccccn1 | > 100 µM | – | > 100 µM | > 100 µM | > 100 µM | – | > 100 µM | GI50 [1]: > 100 µM; GI50 [3]: 40 µM; GI50 [4]: 44.4 µM; GI50 [5]: 35.8 µM; GI50 [8]: 31.9 µM |
| CC(/C=C/C=C/C=C/C=C/C=C/C(O)=C1/C(=O)C(CCC(=O)O)N(C)C1=O)=C\C(C)C(OC1CC(O)C(O)C(C)O1)C(C)C (stereo not drawn) | – | – | – | – | – | 12.7 µM | – | – |
| c1ccc2c(c1)nnn1c3cnccc3nc21 | > 100 µM | > 100 µM | > 100 µM | > 100 µM | > 100 µM | – | 36 µM | – |
| Nc1ccccc1S(=O)c1ccccc1 (stereo not drawn) | > 100 µM | – | – | > 100 µM | > 100 µM | – | > 100 µM | – |
| OCC1OC(n2ccc3cnccc32)CC1O (stereo not drawn) | – | > 100 µM | > 100 µM | > 100 µM | > 100 µM | – | > 100 µM | – |
| COC(=O)C1C2CC3C(OC(=O)C31)C2I (stereo not drawn) | > 100 µM | > 100 µM | – | – | > 100 µM | – | > 100 µM | – |

| SMILES | TGI [1] | TGI [2] | TGI [3] | TGI [4] | TGI [5] | TGI [6] | TGI [8] | further results |
| --- | --- | --- | --- | --- | --- | --- | --- | --- |
| Cc1cc(NC(=O)NC(=O)c2ccccc2[N+](=O)[O-])ccc1Oc1ncc(Cl)cn1 | 0.44 µM | 62.6 µM | 43.7 µM | 24.3 µM | > 100 µM | 29.5 µM | 0.365 µM | – |
| COC1OC(COCc2ccc(Cl)cc2)C(OCc2ccc(Cl)cc2)C1O (stereo not drawn) | 31.9 µM | – | 34.1 µM | 43.3 µM | 35.9 µM | – | 31.7 µM | TGI [7]: 34.6 µM |
| COC(=O)C1C(=O)O[C@@H](c2ccc(OC)cc2)C1C(=O)OC (stereo partly drawn) | > 100 µM | – | > 100 µM | > 100 µM | > 100 µM | – | > 100 µM | – |
| COc1ccccc1/C=C1\CCC(CN(C)C)C1=O (stereo not drawn) | 16.4 µM | 29.2 µM | 4.98 µM | – | 7.46 µM | 26 µM | 20.5 µM | TGI [9]: 2.83 µM; TGI [10]: 2.75 µM; TGI [11]: 4.4 µM |
| CCCCCCCCC(=O)CCCCCCCCC(=O)O | 67.8 µM | > 100 µM | 40.1 µM | 67.5 µM | > 100 µM | – | 75.7 µM | TGI [7]: 44.1 µM |
| Oc1c(Cl)cc(C(c2cc(Cl)c(O)c(Cl)c2)C(c2cc(Cl)c(O)c(Cl)c2)c2cc(Cl)c(O)c(Cl)c2)cc1Cl | – | – | – | – | – | 19 µM | – | GI50 [6]: 4.07 µM |
| Oc1ccc(Cl)cc1Cc1cc(Cl)cc(Cc2cc(Cl)ccc2O)c1O | – | – | – | – | – | 8.31 µM | – | – |
| NC1=NN(c2ccccc2)C(=O)C1C(=O)C(=O)NC1C2CC3CC(C2)CC1C3 (stereo not drawn) | > 100 µM | > 100 µM | > 100 µM | > 100 µM | > 100 µM | – | > 100 µM | TGI [7]: > 100 µM |
| O=[n+]1cnn([O-])c2ccccc21 | – | – | – | – | – | 44.2 µM | – | – |
| Cc1c(NC(=O)CCCl)c(=O)oc2c(C)c3occc(=O)c3cc12 | – | – | – | – | – | > 100 µM | – | – |
| O=c1oc2c(Br)c(O)c(Br)cc2c2ccccc12 | – | – | – | – | – | > 100 µM | – | – |
| CCC[CH2][Sn]([CH2]CCC)([O]C(=O)c1cc(OC)c(OC)c(OC)c1)[O]C(=O)c1cc(OC)c(OC)c(OC)c1 | 3.3 µM | 1.58 µM | 2.46 µM | 0.536 µM | 2.02 µM | – | 2.95 µM | GI50 [7]: 0.53 µM; TGI [7]: 1.83 µM; GI50 [1]: 1.8 µM; GI50 [2]: 0.453 µM; GI50 [3]: 1.21 µM; GI50 [4]: 0.215 µM; GI50 [5]: 0.749 µM; GI50 [8]: 1.35 µM |
| CC(=O)NC(ON1C(=O)COc2ccccc21)C(Cl)(Cl)Cl (stereo not drawn) | > 100 µM | > 100 µM | > 100 µM | > 100 µM | – | – | > 100 µM | – |
| CC(=O)c1cc2c3c(c1)c1cc4c(cc1c(=O)n3CC2)OCO4 | > 100 µM | > 100 µM | > 100 µM | > 100 µM | > 100 µM | – | > 100 µM | TGI [7]: > 100 µM |
| CCOC(=O)CC(=O)N(c1ccc(OC)cc1)C(C(=O)OC)c1ccccc1 (stereo not drawn) | – | – | – | – | – | > 100 µM | – | – |
| O=S1Cc2ccccc2CS1 (stereo not drawn) | > 100 µM | 36.7 µM | 33.5 µM | 28.7 µM | 33.7 µM | – | 29.8 µM | TGI [7]: > 100 µM |
